Laboratory results from ChEMBL document CHEMBL5608235, “Tricyclic Benzo[1,3]oxazinyloxazolidinones as Potent Antibacterial Agents against Drug-Resistant Pathogens” (J Med Chem, 2024).
Converted amounts (≈) assume the structure as drawn. The source made the active and inactive calls. The calls are words filed in the database; no cut-off is given here.

Tests used:
[1] = test system: Staphylococcus aureus; test: Antibacterial activity against methicillin resistant Staphylococcus aureus ATCC 33592 infected in cyclophosphamide-induced immunosuppressed Kunming mouse by measuring survival rate of mouse at 25 mg/kg,po administration measured for 7 days; type: functional; conditions: ATCC 33592, 168 h, time 7 day
[2] = MRT (0 to infinity) in BALB/c mouse at 10 mg/kg,po administration measured upto 24 hrs by LC-MS/MS analysis; type: ADME, organism-based; conditions: in vivo
[3] = test system: Cell membrane; test: Disruption of cell membrane integrity in Staphylococcus aureus ATCC 25923 assessed as increase in red fluorescence at 0.5 ug/ml incubated for 1 hr by […] and propidium iodide double staining based confocal microscopic analysis; type: cell membranes; conditions: dose 0.5 µg/ml
[4] = test system: Staphylococcus aureus; test: Antibacterial activity against daptomycin/methicillin resistant Staphylococcus aureus assessed as inhibition of bacterial growth incubated for 7 days by alamar blue assay; type: functional; conditions: 168 h, time 7 day
[5] = test system: Cell membrane; test: Disruption of cell membrane in methicillin resistant Staphylococcus aureus ATCC 33592 assessed as cell lysis at 0.5 ug/ml incubated for 6 hrs by Scanning electron microscopic analysis; type: cell membranes; conditions: dose 0.5 µg/ml
[6] = Drug concentration in BALB/c mouse plasma at 10 mg/kg,po administration measured within 15 mins by LC-MS/MS analysis; type: ADME, organism-based
[7] = test system: Staphylococcus aureus; test: Antibacterial activity against methicillin resistant Staphylococcus aureus ATCC 33592 infected in cyclophosphamide-induced immunosuppressed Kunming mouse assessed as appearance of inflated alveoli in lung at 50 mg/kg,po administration measured after 24 hrs by hematoxylin and eosin staining based microscopy; type: functional, organism-based
[8] = test system: Cell membrane; test: Disruption of cell membrane integrity in Staphylococcus aureus ATCC 25923 assessed as increase in red fluorescence at 1 ug/ml incubated for 1 hr by […] and propidium iodide double staining based confocal microscopic analysis; type: cell membranes; conditions: dose 1.0 µg/ml
[9] = test system: Cell membrane; test: Disruption of cell membrane integrity in methicillin resistant Staphylococcus aureus ATCC 33592 assessed as increase in blue fluorescence at 1 ug/ml incubated for 1 hr by […] and propidium iodide double staining based confocal microscopic analysis; type: cell membranes; conditions: dose 1.0 µg/ml
[10] = test system: Staphylococcus aureus; test: (§1) Antibacterial activity against methicillin resistant Staphylococcus aureus ATCC 33592 infected in cyclophosphamide-induced immunosuppressed Kunming mouse assessed as reduction in bacterial load in kidney at 25 to 50 mg/kg,po administration measured after 24 hrs by hematoxylin and eosin staining based microscopy; type: functional, organism-based; conditions: dose 25-50 mg/kg
[11] = Terminal half life in BALB/c mouse at 1 mg/kg,iv administration measured upto 24 hrs by LC-MS/MS analysis; type: ADME, organism-based; conditions: in vivo, read-out: beta t1/2 (converted)
[12] = test system: Staphylococcus aureus; test: Antibacterial activity against methicillin resistant Staphylococcus aureus ATCC 33592 infected in cyclophosphamide-induced immunosuppressed Kunming mouse by measuring survival rate of mouse at 10 mg/kg,po administration measured for 7 days; type: functional; conditions: ATCC 33592, 168 h, time 7 day
[13] = test system: Staphylococcus aureus; test: as §1, with “spleen” for “kidney”, “10” for “25”; type: functional, organism-based; conditions: dose 10-50 mg/kg
[14] = test system: Staphylococcus aureus; test: Antibacterial activity against vancomycin resistant Staphylococcus aureus assessed as inhibition of bacterial growth incubated for 7 days by alamar blue assay; type: functional; conditions: 168 h, time 7 day
[15] = test system: Staphylococcus aureus; test: as §1, with “congestion” for “bacterial load”, “spleen” for “kidney”, “at” for “at 25 to”; type: functional, organism-based
[16] = test system: Cell membrane; test: Disruption of cell membrane integrity in Staphylococcus aureus ATCC 25923 assessed as increase in blue fluorescence at 1 ug/ml incubated for 1 hr by […] and propidium iodide double staining based confocal microscopic analysis; type: cell membranes; conditions: dose 1.0 µg/ml
[17] = Metabolic stability in human liver microsomes assessed as substrate remaining at 10 uM incubated for 60 mins in presence of NADPH by LC-MS/MS analysis; type: ADME, Microsome; conditions: read-out: Stability
[18] = test system: Staphylococcus aureus; test: Bacteriostatic activity against methicillin resistant Staphylococcus aureus ATCC 33592 at 4 times MIC incubated for 2 to 24 hrs by time-kill assay; type: functional, organism-based; conditions: time 2-24 hrs
[19] = test system: Cell membrane; test: Disruption of cell membrane in methicillin resistant Staphylococcus aureus ATCC 33592 assessed as cell surface perforation at 0.5 ug/ml incubated for 6 hrs by Scanning electron microscopic analysis; type: cell membranes; conditions: dose 0.5 µg/ml
[20] = Cytotoxicity against African green monkey Vero cells incubated for 48 hrs by MTT assay; type: toxicity, cell-based, Chlorocebus sabaeus
[21] = AUC (0 to infinity) in BALB/c mouse at 10 mg/kg,po administration measured upto 24 hrs by LC-MS/MS analysis; type: ADME, organism-based; conditions: BALB/c, in vivo
[22] = test system: Cell membrane; test: Disruption of cell membrane integrity in methicillin resistant Staphylococcus aureus ATCC 33592 assessed as increase in blue fluorescence at 0.5 ug/ml incubated for 1 hr by […] and propidium iodide double staining based confocal microscopic analysis; type: cell membranes; conditions: dose 0.5 µg/ml
[23] = test system: Staphylococcus aureus; test: Inhibition of protein synthesis in Staphylococcus aureus ATCC 29213 by translation assay; type: functional, organism-based
[24] = MRT (0 to t) in BALB/c mouse at 10 mg/kg,po administration measured upto 24 hrs by LC-MS/MS analysis; type: ADME, organism-based; conditions: in vivo
[25] = test system: Staphylococcus aureus; test: as §1, with “histopathological change” for “bacterial load”, “lung” for “kidney”; type: functional, organism-based; conditions: dose 25-50 mg/kg
[26] = test system: Staphylococcus aureus; test: as §1, with “histopathological change” for “bacterial load”, “heart” for “kidney”, “10” for “25”; type: functional, organism-based; conditions: dose 10-50 mg/kg
[27] = test system: Cell membrane; test: Disruption of cell membrane in methicillin resistant Staphylococcus aureus ATCC 33592 assessed as damage in bacterial cell envelope at 0.5 ug/ml incubated for 30 mins by Scanning electron microscopic analysis; type: cell membranes; conditions: dose 0.5 µg/ml
[28] = test system: Staphylococcus aureus; test: Inhibition of biofilm formation in methicillin resistant Staphylococcus aureus ATCC 33592 at 0.1 to 10 ug/ml incubated for 48 hrs by crystal violet staining based assay; type: functional, organism-based; conditions: dose 0.1-10 µg/ml
[29] = AUC (0 to infinity) in BALB/c mouse at 1 mg/kg,iv administration measured upto 24 hrs by LC-MS/MS analysis; type: ADME, organism-based; conditions: BALB/c, in vivo
[30] = Clearance in BALB/c mouse at 1 mg/kg,iv administration measured upto 24 hrs by LC-MS/MS analysis; type: ADME, organism-based; conditions: in vivo
[31] = test system: Staphylococcus aureus; test: Induction of resistant development in methicillin resistant Staphylococcus aureus ATCC 33592 assessed as fold increase in MIC at 0.5 to 4 ug/ml measured after 30 serial passages by broth microdilution analysis; type: functional; conditions: dose 0.5-4 µg/ml
[32] = test system: Staphylococcus aureus; test: as §1, with “pigment deposition” for “bacterial load”, “spleen” for “kidney”, “at” for “at 25 to”; type: functional, organism-based
[33] = test system: Staphylococcus aureus; test: Antibacterial activity against methicillin resistant Staphylococcus aureus ATCC 33592 infected in cyclophosphamide-induced immunosuppressed Kunming mouse assessed as increase in body weight at 10 to 50 mg/kg,po administration measured for 7 days; type: functional, organism-based; conditions: dose 10-50 mg/kg, time 7.0 day
[34] = test system: Staphylococcus aureus; test: as §1, with “pigment deposition” for “bacterial load”, “spleen” for “kidney”, “10” for “25 to 50”; type: functional, organism-based
[35] = test system: Staphylococcus aureus; test: Antibacterial activity against Linezolid resistant Staphylococcus aureus clinical isolate 20-1 assessed as inhibition of bacterial growth incubated for 7 days by alamar blue assay; type: functional; conditions: clinical isolate 20-1, 168 h, time 7 day

CC(=O)NC[C@@H]1OC(=O)N2Cc3cc(-c4ccc(C#N)cc4)c(F)cc3O[C@@H]12
survival at 25 mg/kg [1]: 100% | MRT inf [2]: 17.3 h | Activity [3]: Active | MIC [4]: 1 µg/mL (≈ 2.62 µM) | Activity [5]: Active | concentration at 0.25 h [6]: 1000 ng/mL | Activity [7]: Active | Activity [8]: Active | Activity [9]: Active | Activity [10]: Active | half-life [11]: 7.9 h | survival at 10 mg/kg [12]: 85.7% | Activity [13]: Active | MIC [14]: 1 µg/mL (≈ 2.62 µM) | Activity [15]: Active | Activity [16]: Active | remaining at 1 h, 10 µM [17]: 116% | Activity [18]: Active | Activity [19]: Active | IC50 at 48 h [20]: 35 µg/mL (≈ 91.8 µM) | AUC(0-inf) [21]: 83500 ng·h/mL | Activity [22]: Active | IC50 [23]: 1.5 µg/mL (≈ 3.93 µM) | MRT last at 24 h [24]: 9.3 h | Activity [25]: Active | Activity [26]: Active | Activity [27]: Active | inhibition [28]: Active | AUC(0-inf) [29]: 5130 ng·h/mL | clearance [30]: 2.92 mL/min/kg | fold change (FC) [31]: 8 | Activity [32]: Active | Activity [33]: Active | Activity [34]: Active | MIC [35]: 8 µg/mL (≈ 21 µM)
